The source of these data is patent publication US20240383882A1 (Ecstasy LLC, priority 2020, published 2024).

Where a name gives a salt, the structure may show the parent alone. Some results are limits rather than exact numbers.

The subject of one test is male C57BL/6 mice. Kind of test: 55° C. warm-water tail-flick test (antinociception). Format: in vivo. Conditions: Mus musculus, sc, 0.5 h, compounds of Table I; s.c.; 30 min; 55° C. water; configuration tested as in Table II; read-out: ED50 (mg/kg) at 30 min on C57BL/6 mice in Warm-water Tail-flick Test. In short, it runs like this:
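Mice with baseline tail-flick latency within 2 s at 55° C received compound s.c. and were retested at 30, 60, 90 and 120 min. % antinociception = 100×(test−control latency)/(20−control latency); ED50 in mg/kg.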
A general note: In hot-plate and tail-flick tests a longer latency is read as antinociception.
Take `Cc1ccc(S(=O)(=O)NCC2(CCc3cc(C)c(C)s3)CCN(C(C)(C)c3ccc(C)nc3)C2)cc1` (single isomer, unassigned) [Compound 126]: the ED50 was at most 30 mg/kg.

Consider `Cc1ccc(C(C)(C)N2CCC(CCc3ccc(F)s3)(CNS(=O)(=O)O)C2)cn1` (single isomer, unassigned) [Compound 322], for which the ED50 is at most 30 mg/kg.

With `CCC(C)(c1ccc(C)nc1)N1CCC(CCc2cccs2)(C2OCCc3ccccc32)C1` (single isomer, unassigned) [Compound 89, 5-(2-((R or S)-3-((S or R)-isochroman-1-yl)-3-(2-(thiophen-2-yl)ethyl)pyrrolidin-1-yl)butan-2-yl)-2-methylpyridine citrate], the ED50 is at most 30 mg/kg.

As to `CCOC(C(F)(F)F)(C(F)(F)F)[C@]1(CCc2ccc(F)cc2)CCN(Cc2ccc(C)nc2)C1` [Compound 13, (R)-5-((3-(2-ethoxy-1,1,1,3,3,3-hexafluoropropan-2-yl)-3-(4-fluorophenethyl)pyrrolidin-1-yl)methyl)-2-methylpyridine], the ED50 was at most 30 mg/kg.

Consider `Cc1ccc(C(C)(C)N2CCC(CCc3cccs3)(C3OCCc4ccccc43)C2)cn1` (single isomer, unassigned) [Compound 87, 5-(2-((R or S)-3-((S or R)-isochroman-1-yl)-3-(2-(thiophen-2-yl)ethyl)pyrrolidin-1-yl)propan-2-yl)-2-methylpyridine citrate], for which the ED50 is at most 30 mg/kg.

For `Cc1ccc(C(C)(C)N2CCC(CCc3cccs3)(COC(F)F)C2)cn1` (single isomer, unassigned) [Compound 82, (R or S)-5-(2-(3-((difluoromethoxy)methyl)-3-(2-(thiophen-2-yl)ethyl)pyrrolidin-1-yl)propan-2-yl)-2-methylpyridine citarte], the ED50 is at most 30 mg/kg.

Staying with this test, now noted: Mus musculus, sc, 0.5 h, compounds of Table III; s.c.; 30 min; 55° C. water; configuration tested as in Table IV; read-out: ED50 (mg/kg) at 30 min on C57BL/6 mice in Warm-water Tail-flick Test (same as Table II).
Regarding `CCOC[C@]1(CCc2ccccc2)CCN(C(C)(C)c2ccc(Br)cc2)C1` [Compound 5], the ED50 was at most 30 mg/kg.

Still in this test, the particulars now being: Mus musculus, sc, 0.5 h, compounds of Table V; s.c.; 30 min; 55° C. water; read-out: ED50 (mg/kg) at 30 min on C57BL/6 mice in Warm-water Tail-flick Test (same conditions as Table II).
In the case of `CCOCC1(CCc2ccccc2)CCN(Cc2ccc(NC(=O)OC)cc2)CC1` [Compound 24], the ED50 was over 50 mg/kg.

As for `CCOC(C(F)(F)F)(C(F)(F)F)[C@]1(CCc2ccc(F)cc2)CCN(Cc2ccc(C)nc2)C1` [Compound 13, (R)-5-((3-(2-ethoxy-1,1,1,3,3,3-hexafluoropropan-2-yl)-3-(4-fluorophenethyl)pyrrolidin-1-yl)methyl)-2-methylpyridine], the ED50 was over 50 mg/kg.

Still in this test, the particulars now being: Mus musculus; half maximal effective dose in mice; using one of: warm water tail-flick test, spared nerve injury, chronic constriction injury, or Complete Freund's adjuvant induced inflammatory pain (not stated which per compound); read-out: Biological Activity (ED50).
On to `COc1cccc(C(C)(C)N2CC[C@@](CCc3ccc(C#N)cc3)(C(=O)O)C2)c1` [Compound 143, (R)-3-(4-cyanophenethyl)-1-(2-(3-methoxyphenyl)propan-2-yl)pyrrolidine-3-carboxylic acid], for which the ED50 was over 50 mg/kg.

`CC(C)(c1ccccn1)N1CC[C@@](CCc2ccc(C#N)cc2F)(COCc2ccccc2)C1` [Compound 109, (R)-4-(2-(3-((benzyloxy)methyl)-1-(2-(pyridin-2-yl)propan-2-yl)pyrrolidin-3-yl)ethyl)-3-fluorobenzonitrile]: the ED50 is over 50 mg/kg.

With `CC(C)(c1ccccn1)N1CC[C@@](CCc2ccc(C#N)c(F)c2)(C(=O)C(F)(F)F)C1` [Compound 105, (R)-2-fluoro-4-(2-(1-(2-(pyridin-2-yl)propan-2-yl)-3-(2,2,2-trifluoroacetyl)pyrrolidin-3-yl)ethyl) benzonitrile], the ED50 was over 50 mg/kg.

Regarding `CCOC(C(F)(F)F)(C(F)(F)F)[C@]1(CCc2ccc(C#N)cc2)CCN(Cc2cccnc2)C1` [Compound 9, (R)-4-(2-(3-(2-ethoxy-1,1,1,3,3,3-hexafluoropropan-2-yl)-1-(pyridin-3-ylmethyl)pyrrolidin-3-yl)ethyl) benzonitrile], the ED50 was over 50 mg/kg.

As to `CC(C)(c1ccccn1)N1CC[C@@](CCc2ccc3nonc3c2)(CS(C)(=O)=O)C1` [Compound 169, (R)-5-(2-(3-((methylsulfonyl)methyl)-1-(2-(pyridin-2-yl)propan-2-yl)pyrrolidin-3-yl)ethyl)benzo[c] [1,2,5]oxadiazole], the ED50 is over 50 mg/kg.

`Cc1ccc(C(C)(C)N2CC[C@@](CCc3ccc(C#N)cc3)(C(=O)C(F)(F)F)C2)cn1` [Compound 166, (R)-4-(2-(1-(2-(6-methylpyridin-3-yl)propan-2-yl)-3-(2,2,2-trifluoroacetyl)pyrrolidin-3-yl)ethyl) benzonitrile]: the ED50 was at most 30 mg/kg.

In the case of `COc1cccc(C(C)(C)N2CC[C@@](CCc3ccc(C#N)cc3)(C(=O)O)C2)n1` [Compound 158, (R)-3-(4-cyanophenethyl)-1-(2-(6-methoxypyridin-2-yl)propan-2-yl)pyrrolidine-3-carboxylic acid], the ED50 was over 50 mg/kg.

Turning to `CC(C)(c1ccccn1)N1CC[C@@](CCc2ccc(C#N)cc2)(c2ncc(C(F)(F)F)[nH]2)C1` [Compound 108, (R)-4-(2-(1-(2-(pyridin-2-yl)propan-2-yl)-3-(5-(trifluoromethyl)-1H-imidazol-2-yl)pyrrolidin-3-yl)ethyl) benzonitrile], the ED50 is over 50 mg/kg.

As to `CC(C)(c1ccc(S(C)(=O)=O)cc1)N1CC[C@](CO)(CCc2ccc(F)cc2)C1` [Compound 36, (R)-(3-(4-fluorophenethyl)-1-(2-(4-(methylsulfonyl)phenyl)propan-2-yl)pyrrolidin-3-yl)methanol], the ED50 is over 50 mg/kg.

Turning to `CC(C)(c1ccccn1)N1CC[C@@](CCc2ccc(C#N)s2)(COCc2ccccc2)C1` [Compound 141, (R)-5-(2-(3-((benzyloxy)methyl)-1-(2-(pyridin-2-yl)propan-2-yl)pyrrolidin-3-yl)ethyl)thiophene-2-carbonitrile], the ED50 is at most 30 mg/kg.

In the case of `CC(C)(c1ccccn1)N1CC[C@@](CCc2ccc(F)c(F)c2)(C(O)C(F)(F)F)C1` (single isomer, unassigned) [Compound 150, (R or S)-1-((R)-3-(3,4-difluorophenethyl)-1-(2-(pyridin-2-yl)propan-2-yl)pyrrolidin-3-yl)-2,2,2-trifluoroethan-1-ol], the ED50 is at most 30 mg/kg.

As to `CC(C)(c1ccccn1)N1CC[C@](CO)(CCc2cccc(C#N)c2)C1` [Compound 127, (R)-3-(2-(3-(hydroxymethyl)-1-(2-(pyridin-2-yl)propan-2-yl)pyrrolidin-3-yl)ethyl) benzonitrile], the ED50 was over 50 mg/kg.

As to `CC(C)(c1ccccn1)N1CC[C@@](CCc2ccc3nonc3c2)(c2nn[nH]n2)C1` [Compound 181, (R)-5-(2-(1-(2-(pyridin-2-yl)propan-2-yl)-3-(2H-tetrazol-5-yl)pyrrolidin-3-yl)ethyl) benzo[c] [1,2,5]oxadiazole], the ED50 was over 50 mg/kg.

`CC(C)(c1ccccn1)N1CC[C@@](CCc2cccc(C#N)c2)([C@H](O)C(F)(F)F)C1` [Compound 133, 3-(2-((R)-1-(2-(pyridin-2-yl)propan-2-yl)-3-((S)-2,2,2-trifluoro-1-hydroxyethyl)pyrrolidin-3-yl)ethyl) benzonitrile]: the ED50 is over 50 mg/kg.

Regarding `COC[C@@]1(CCc2ccc(S(C)(=O)=O)cc2)CCN(C(C)(C)c2ccc(Cl)cn2)C1` [Compound 45], the ED50 was over 50 mg/kg.

On to `CC(O)[C@]1(CCc2ccc(F)cc2)CCN(C(C)(C)c2ccc(S(C)(=O)=O)cc2)C1` (single isomer, unassigned) [Compound 38, (R or S)-1-((R)-3-(4-fluorophenethyl)-1-(2-(4-(methylsulfonyl)phenyl)propan-2-yl)pyrrolidin-3-yl)ethan-1-ol], for which the ED50 is over 50 mg/kg.

Take `CC1(C)COC1[C@]1(CCc2ccc(C#N)cc2)CCN(Cc2ccccn2)C1` (single isomer, unassigned) [Compound 192, 4-(2-((R)-3-((R or S)-3,3-dimethyloxetan-2-yl)-1-(pyridin-2-ylmethyl)pyrrolidin-3-yl)ethyl) benzonitrile]: the ED50 is at most 30 mg/kg.

Regarding `CCOC(C(F)(F)F)(C(F)(F)F)[C@]1(CCc2ccc(F)cc2)CCN(Cc2ccc(C)nc2)C1` [Compound 13, (R)-5-((3-(2-ethoxy-1,1,1,3,3,3-hexafluoropropan-2-yl)-3-(4-fluorophenethyl)pyrrolidin-1-yl)methyl)-2-methylpyridine], the ED50 is over 50 mg/kg.

In the case of `CCOC(C(F)(F)F)[C@]1(CCc2ccc(C#N)cc2)CCN(C(C)(C)c2ccc(C)nc2)C1` (single isomer, unassigned) [Compound 170, 4-(2-((R)-3-((R or S)-1-ethoxy-2,2,2-trifluoroethyl)-1-(2-(6-methylpyridin-3-yl)propan-2-yl)pyrrolidin-3-yl)ethyl) benzonitrile], the ED50 is over 50 mg/kg.

As to `CC(C)(c1ccccn1)N1CC[C@](C#N)(CCc2ccc(C#N)cc2)C1` [Compound 179, (R)-3-(4-cyanophenethyl)-1-(2-(pyridin-2-yl)propan-2-yl)pyrrolidine-3-carbonitrile], the ED50 was over 50 mg/kg.

On to `CCC(C)(c1ccc(S(C)(=O)=O)cc1)N1CC[C@@](CCc2ccc(F)cc2)(COCc2ccccc2)C1` (stereo partly drawn) [Compound 34, (3R)-3-((benzyloxy)methyl)-3-(4-fluorophenethyl)-1-(2-(4-(methylsulfonyl)phenyl)butan-2-yl)pyrrolidine], for which the ED50 was over 50 mg/kg.

For `CC(C)(c1ccccn1)N1CC[C@@](CCc2ccc(C#N)s2)(C(O)(C(F)(F)F)C(F)(F)F)C1` [Compound 160, (R)-5-(2-(3-(1,1,1,3,3,3-hexafluoro-2-hydroxypropan-2-yl)-1-(2-(pyridin-2-yl)propan-2-yl)pyrrolidin-3-yl)ethyl)thiophene-2-carbonitrile], the ED50 is over 50 mg/kg.

For the compound `CCOC(C(F)(F)F)(C(F)(F)F)[C@]1(CCc2ccc(F)cc2)CCN(Cc2cccnc2)C1` [Compound 14, (R)-3-((3-(2-ethoxy-1,1,1,3,3,3-hexafluoropropan-2-yl)-3-(4-fluorophenethyl)pyrrolidin-1-yl)methyl)pyridine], the ED50 is over 50 mg/kg.

In the case of `N#Cc1ccc(CC[C@]2(CO)CCN(C(c3ccc(F)cc3)c3cccnc3)C2)cc1` (stereo partly drawn) [Compound 64], the ED50 is over 50 mg/kg.
